{"source": "patent US20250352555A1", "about": "“METHOD OF INCREASING IMMUNE CELL ACTIVATION AND/OR TREATING CANCER USING DIBENZOXAZEPINONES” (VASCULAR THERAPEUTICS PTY LTD, priority 2022, published 2025)", "assay_type_in_all_cases": "cell-based, human", "key": {"p-ERK (Thr^202/Tyr^204)": {"tested_on": "p-ERK (Thr^202/Tyr^204)", "assay": "Western blotting for p-ERK, A375 melanoma cells", "conditions": "10 or 100 nM, 24 h", "protocol": "(§1) Western blotting. Cells were treated with compounds and times indicated and total cell lysates were prepared in RIPA buffer. Lysates (10 μg) were resolved by SDS-PAGE and transferred to Immobilon-P polyvinylidene difluoride (PVDF) membranes (Millipore, USA).\nMembranes were blocked with 5% skim milk and incubated with rabbit monoclonal anti-c-Jun (Abcam, cat. no. ab32137; mouse, rat and human reactive) antibody, rabbit monoclonal anti-PD-1 (Abcam, cat. no. ab214421) antibody, mouse monoclonal β-actin antibody (Sigma-Aldrich, cat. no. A5316), anti-phospho-SAPK/JNK (Thr^183/Tyr^185) (98F2) (CST, cat. no. 4671) antibody, anti-phospho-p44/42 MAPK (ERK1/2) (Thr^202/Tyr^204) (D13.14.4E) (CST, cat. no. 4370) antibody, anti-phospho-p38 MAPK (Thr^180/Tyr^182) (D3F9) (CST, cat. no. 4511) antibody, anti-SAPK/JNK antibody (CST, cat. no. 9252), anti-p44/42 MAPK (ERK1/2) (137F5) antibody (CST, cat. no. […] Chemiluminescence was detected using the Western Lightning Chemiluminescence system (Thermo Scientific, USA) and ImageQuant™ LAS 4000 biomolecular imager (GE Healthcare Life Sciences, USA). Band intensity in images generated with the LAS 4000 was quantified using NIH Image J.\nThe effect of BT2 on ERK phosphorylation (p-ERK) was evaluated in human melanoma cells given that MAP kinase activation is key to melanoma progression and the paucity of clinically approved ERK inhibitors. […]"}, "DUSP8": {"tested_on": "DUSP8", "assay": "Western blotting for DUSP8, Jurkat T cells", "conditions": "24 h", "protocol": "as §1\nMembranes were blocked with 5% skim milk and incubated with rabbit monoclonal anti-c-Jun (Abcam, cat. no. ab32137; mouse, rat and human reactive) antibody, rabbit monoclonal anti-PD-1 (Abcam, cat. no. ab214421) antibody, mouse monoclonal β-actin antibody (Sigma-Aldrich, cat. no. A5316), anti-phospho-SAPK/JNK (Thr^183/Tyr^185) (98F2) (CST, cat. no. 4671) antibody, anti-phospho-p44/42 MAPK (ERK1/2) (Thr^202/Tyr^204) (D13.14.4E) (CST, cat. no. 4370) antibody, anti-phospho-p38 MAPK (Thr^180/Tyr^182) (D3F9) (CST, cat. no. 4511) antibody, anti-SAPK/JNK antibody (CST, cat. no. 9252), anti-p44/42 MAPK (ERK1/2) (137F5) antibody (CST, cat. no. 4695), anti-p38 MAPK antibody (CST, cat. no. 9212), anti-DUSP8 antibody (Abcam, cat. no. ab198175) or anti-c-MAF (BLR045F) antibody (Abcam, cat. no. ab243901). […] Chemiluminescence was detected using the Western Lightning Chemiluminescence system (Thermo Scientific, USA) and ImageQuant™ LAS 4000 biomolecular imager (GE Healthcare Life Sciences, USA). Band intensity in images generated with the LAS 4000 was quantified using NIH Image J. […]"}, "A375 cells": {"tested_on": "A375 cells", "assay": "Apoptosis, flow cytometry with Annexin V-FITC, A375", "conditions": "1 μM, 24 h", "protocol": "Flow cytometry with Annexin V-FITC. Cells were seeded into 6 well plates in normal culture medium containing 10% FBS. After culturing overnight, the cells were incubated in complete medium containing vehicle, BT2 or SCH772984 at 1 μM and left for 24 h. The culture medium was removed and the cells were washed with PBS. Accutase (Stem Cell Technologies, cat. no. 07920) was used to detach the cells. The cells were then washed and centrifuged at 300 g for 5 min and resuspended at 1×10^6 cells/ml in 500 μl of 1× binding buffer (Annexin V-FITC Apoptosis Staining/Detection Kit, Abcam, cat. no. ab14085). The cells were transferred to 12×75 mm tubes and annexin V-FITC/propidium iodide (PI) was added and incubated for 5 min at 22° C. protected from light. Stained cell suspensions were analyzed by flow cytometry using a BD LSRFortessa X20.\nThe morphology of A375 and MeWo cells exposed to 1 μM of BT2 or SCH772984 for 24 h was also assessed."}}}
{"smiles": "CCOC(=O)Nc1ccc2c(c1)C(=O)N(CC)c1ccccc1O2", "note": "[BT2, (10-ethyl-11-oxo-10,11-dihydro-dibenzo[b,f][1,4]oxazepin-2-yl)-carbamic acid ethyl ester]", "values": [{"measurement": "ERK phosphorylation (p-ERK, Western blot)", "setting": "p-ERK (Thr^202/Tyr^204)", "result": "suppressed ERK phosphorylation"}, {"measurement": "DUSP8 protein levels (Western blot)", "setting": "DUSP8", "result": "elevated"}, {"measurement": "apoptosis (Annexin V-FITC+ PI−)", "setting": "A375 cells", "result": "increased apoptosis"}]}
